{"source": "patent US20090220566A1", "about": "“BIOIMPLANTS FOR USE IN TISSUE GROWTH” (priority 2006, published 2009)", "test_system": "tissue ingrowth, specifically angiogenesis and vascularization", "details": "for conclusion on stimulation of wound healing: selenium at 0.25 ng/mm^3 of the implant, cobalt at 0.45 ng per mm^3 of the implant; for wound tissue / tissue ingrowth in the pores (histological sections): 3 μl per half implant of 70 μM salt in Hank's balanced salt solution on the closed pore", "method": "Brushite and hydroxyapatite cuboid bioimplants (434±4 mg dry weight) with a 2D branched structure (Y-shape pore) were produced by cement printing following a method previously developed (Hölzel, 2005). The pore was 1.31 mm diameter and open in the middle of one smaller face and decreased in diameter to 1 mm as it branched in the centre of the block. One branch emerged on an adjacent face while the other was a ‘blind’ closed pore. 5 μl of 70 μM copper sulphate solution was deposited at the end of the blind closed pore of the Y as represented in FIG. 2B. This solution thus contained a total of […] of copper sulphate, i.e. 22 ng of copper ions. It was absorbed onto a small localised volume ca 5 mm^3, of the implant of dimensions 8×8×4 mm, (approximately 250 mm^3). This copper thus represented 88 ng per cm^3.\nBrushite and hydroxyapatite materials were implanted in animals for 15 days in order to observe tissue ingrowth, specifically angiogenesis and vascularization. In order to facilitate observation of tissue ingrowth the implants were made in two mirror image halves that keyed into one another and split the pore cavity along its symmetrical axis (FIG. 2). A 5 μl solution of copper sulfate at low concentration (0.07 mM) was deposited at the end of the closed pore, dried, and implanted in the abdominal cavity (i.e., intraperitoneally) in mice for 15 days. The retrieved implants were opened and examined for tissue ingrowth (FIG. 2C). […] This is in comparison to control implants with no adsorption of copper (FIG. 2D).\nSimilar to the implants with copper as described above, solutions (3 μl per half implant) of manganese chloride, sodium selenium, silver nitrate, zinc chloride, and cobalt chloride diluted in Hank's balanced salt solution (vehicle) were adsorbed on the closed pore on each half. They were used respectively at 70 μM. The final amounts of the metals ranged from 10 to 200 ng per implant. These conditions were compared to vehicle (HBBS) as control and copper (70 μM)\nAfter 15 days of implantation in peritoneal site in mice, the implants were retrieved and histological sections of the tissue ingrowth in the pores were processed.", "key": {"[1]": {"details": "3 μl per half implant of 70 μM salt on the closed pore, 15 days peritoneal site in mice"}, "[2]": {"details": "15 days peritoneal site in mice"}}}
{"compound": "[Cl][Co][Cl]", "note": "[cobalt, cobalt chloride]", "values": [{"measurement": "microvessels by histology", "setting": "[1]", "value": "microvessels with transgression of inflammatory cells were observed"}, {"measurement": "conclusion on stimulation of wound healing", "value": "enhances particularly blood vessel formation"}]}
{"compound": "[Cl-].[Cl-].[Zn+2]", "note": "[zinc, zinc chloride]", "values": [{"measurement": "orientation of tissue ingrowth towards the closed (loaded) pore", "setting": "[1]", "value": "no orientation towards the closed pore"}]}
{"compound": "O=[N+]([O-])[O-].[Ag+]", "note": "[silver, silver nitrate]", "values": [{"measurement": "orientation of tissue ingrowth towards the closed (loaded) pore", "setting": "[1]", "value": "no orientation towards the closed pore"}]}
{"compound": "manganese chloride", "values": [{"measurement": "wound tissue / tissue ingrowth in the pores (histological sections)", "setting": "[2]", "value": "a bloody tissue was formed in the pores"}]}
{"compound": "O=S(=O)([O-])[O-].[Cu+2]", "note": "[copper sulfate]", "values": [{"measurement": "blood vessels observed", "setting": "mouse, in vivo", "value": "No blood vessels were observed"}, {"measurement": "concentrations of copper suitable to encourage endothelial cell growth into a 1.3 mm diameter pore opening at the surface of an implant", "setting": "mouse, in vivo", "value": "below 20 μg/mm^3"}, {"measurement": "mean blood vessel in-growth distance", "setting": "mouse, in vivo", "value": 4.3, "unit": "mm"}, {"measurement": "mean distance over which blood vessels were observed to grow from the large pore opening to the closed pore end", "setting": "mouse, in vivo", "value": "nearly the entire length"}, {"measurement": "tissue infiltrating the pore", "setting": "mouse, in vivo", "value": "tissue rich in leukocytes and dead cells"}, {"measurement": "tissue ingrowth in the pores", "setting": "mouse, in vivo", "value": "vascular tissue"}]}
{"compound": "VEGF", "values": [{"measurement": "mean blood vessel in-growth distance", "setting": "mouse, in vivo", "value": 3.7, "unit": "mm"}, {"measurement": "mean distance over which blood vessels were observed to grow from the large pore opening to the closed pore end", "setting": "mouse, in vivo", "value": "nearly the entire length"}]}
{"compound": "O=[Se]([O-])[O-].[Na+].[Na+]", "note": "[selenium, sodium selenium]", "values": [{"measurement": "wound tissue / tissue ingrowth in the pores (histological sections)", "setting": "[2]", "value": "immature wound tissue"}, {"measurement": "orientation of tissue ingrowth towards the closed (loaded) pore", "setting": "[1]", "value": "oriented towards the closed pore"}, {"measurement": "conclusion on stimulation of wound healing", "value": "may enhance tissue maturation"}]}
